Experimental data taken from patent US6207393A, “Inhibition of intracellular signal transduction by 14-3-3-binding peptides” (Washington University, priority 1999, dated 2001).
pIC50: −log10 of the molar value. Like-named read-outs stand apart in the source and are kept apart here. Where a SMILES comes first, the peptide text is derived from it. [ ]: non-standard residue; d: D form. pS = N[C@@H](COP(=O)(O)O)C(=O)O

Molecular target: T1, 14-3-3 zeta (Homo sapiens, UniProt P63104)
T1 construct: made in house; host or cells: E. coli DH5α (vector pGEX-KT)
T1 sequence (P63104 1-245): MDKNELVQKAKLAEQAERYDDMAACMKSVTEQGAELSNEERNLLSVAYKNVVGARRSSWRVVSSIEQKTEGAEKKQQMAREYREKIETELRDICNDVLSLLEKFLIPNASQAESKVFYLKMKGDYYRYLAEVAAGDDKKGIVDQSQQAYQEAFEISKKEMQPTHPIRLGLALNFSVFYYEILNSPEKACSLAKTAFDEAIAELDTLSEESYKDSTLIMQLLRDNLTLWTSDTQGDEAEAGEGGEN
Assay: Displacement of 32P-labeled phosphorylated Raf-259 peptide from immobilized GST/14-3-3 zeta (scintigraphy)
Assay type: binding
Method: The 14-3-3 protein isoforms for use in binding studies with the above peptides were prepared as proteins fused with glutathione-S-transferase (GST) and immobilized to glutathione agarose beads. GST/14-3-3 fusion proteins were made by generating BamHI and EcoRI restriction endonuclease sites (underlined) at the 5' and 3' ends respectively of the 14-3-3 cDNAs by polymerase chain reaction (PCR) using the following isoform sequence specific pairs of primers: 14-3-3 beta, […] (SEQ ID NO: 11), […] (SEQ ID NO: 12); 14-3-3 eta […] (SEQ ID NO: 13), […] (SEQ ID NO: 14); 14-3-3 tau […] (SEQ ID NO: 15), […] (SEQ ID NO: 16); 14-3-3 zeta […] (SEQ ID NO: 17), […] (SEQ ID NO: 18). The cDNA products were digested with BamHI and EcoRI, subcloned into the vector pGEX-KT (Guan and Dixon, Anal Biochem 192: 262-7, 1991 which is incorporated by reference). The vector was used to transform the DH5α strain of E. Coli. GST-14-3-3 fusion protein expression in log-growth phase bacterial cultures was accomplished by induction with 100 μM isopropyl β-D-thiogalactopyranoside (IPTG; Gold Biotechnology, St. Louis) for 4 hours. Cells were disrupted by sonication and lysates, containing 1% Triton X-100, were incubated with glutathione agarose beads (Sigma, St. Louis) at 4° C. overnight. Fusion proteins were eluted by incubation with 10 mM reduced glutathione (Sigma, St. Louis) in phosphate buffered saline for 1 hour at room temperature, dialyzed in phosphate buffered saline and quantitated by Coomassie staining SDS polyacrylamine gels compared against bovine serum albumin standards.
The Raf-259 peptide (SEQ ID NO: 4) was phosphorylated in vitro using protein kinase A (PKA) and [^32 P]-γ-ATP following the manufacturers instruction (PKA, New England Biolabs) with 20 μCi of [^32 P]-γ-ATP (NEN-Dupont, 6000 Ci/mmol). The efficiency of phosphorylation was calculated to be between 7 and 12% based upon the specific activity of the labelled peptide.
The labeled peptide was then incubated with immobilized 14-3-3 zeta fusion protein and binding of the labelled peptide was measured. […] Binding was also sequence specific. […]

## CC(C)C[C@H](N)C(=O)N[C@@H](CO)C(=O)N[C@@H](CCC(N)=O)C(=O)N[C@@H](CCCNC(=N)N)C(=O)N[C@@H](CCC(N)=O)C(=O)N[C@@H](CCCNC(=N)N)C(=O)N[C@@H](CO)C(=O)N[C@H](C(=O)N[C@@H](COP(=O)(O)O)C(=O)N[C@H](C(=O)N1CCC[C@H]1C(=O)N[C@@H](CC(N)=O)C(=O)N[C@H](C(=O)N[C@@H](Cc1c[nH]cn1)C(=O)N[C@@H](C)C(=O)O)C(C)C)[C@@H](C)O)[C@@H](C)O [pS-Raf-259] (H-LSQRQRST[pS]TPNVHA-OH)
Corrected for 7-12% efficiency of in vitro phosphorylation, read-out: true IC50
  pIC50: 6.62 to 7.15
Not corrected for efficiency of phosphorylation, read-out: IC50
  pIC50: 5.70 to 6.00
